Data as given in ChEMBL document CHEMBL1201862, “PubChem BioAssay data set” (2004).
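Results reflect a 48-hour exposure of cells in 96-well plates to compound at five concentrations. GI50 is the concentration that inhibits growth by half.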 Active and inactive are the calls of the source. No stated cut-off is given here; in the data, active = GI50 up to about 1.1 µM and inactive = higher.

Columns and labels:
Experiment in all cases: growth of human tumour cells (NCI), 48 h
EKVX = test system: EKVX
M14 = test system: M14
HT-29 = test system: HT-29
786-0 = test system: 786-0
HCT-116 = test system: HCT-116
UACC-257 = test system: UACC-257
HL-60 = test system: HL-60
HCC 2998 = test system: HCC 2998
NCI-H522 = test system: NCI-H522
LOX IMVI = test system: LOX IMVI
HOP-92 = test system: HOP-92
K562 = test system: K562
A549 = test system: A549
SF-539 = test system: SF-539
SW-620 = test system: SW-620
SF-268 = test system: SF-268
NCI-H23 = test system: NCI-H23
HCT-15 = test system: HCT-15

| Compound | GI50 (EKVX) | GI50 (M14) | GI50 (HT-29) | GI50 (786-0) | GI50 (HCT-116) | GI50 (UACC-257) | GI50 (HL-60) | GI50 (HCC 2998) | GI50 (NCI-H522) | GI50 (LOX IMVI) | GI50 (HOP-92) | GI50 (K562) | GI50 (A549) | GI50 (SF-539) | GI50 (SW-620) | GI50 (SF-268) | GI50 (NCI-H23) | GI50 (HCT-15) |
| --- | --- | --- | --- | --- | --- | --- | --- | --- | --- | --- | --- | --- | --- | --- | --- | --- | --- | --- |
| COc1cc(CCC(=O)NS(=O)(=O)c2ccccc2)cc(OC)c1OC | > 100 µM (inactive) | > 100 µM (inactive) | > 100 µM (inactive) | > 100 µM (inactive) | > 100 µM (inactive) | > 100 µM (inactive) | > 100 µM (inactive) | > 100 µM (inactive) | > 100 µM (inactive) | > 100 µM (inactive) | > 100 µM (inactive) | > 100 µM (inactive) | > 100 µM (inactive) | > 100 µM (inactive) | > 100 µM (inactive) | > 100 µM (inactive) | > 100 µM (inactive) |  |
| CSCCC(C(=O)O)N(CC1(O)OCC(O)C(O)C1O)N=O (stereo not given) | > 100 µM (inactive) | > 100 µM (inactive) | > 100 µM (inactive) | > 100 µM (inactive) | > 100 µM (inactive) | > 100 µM (inactive) | > 100 µM (inactive) | > 100 µM (inactive) | > 100 µM (inactive) | > 100 µM (inactive) | > 100 µM (inactive) | > 100 µM (inactive) | > 100 µM (inactive) | > 100 µM (inactive) | > 100 µM (inactive) |  | > 100 µM (inactive) |  |
| C/C(CC(=O)Nc1cccc([N+](=O)[O-])c1)=N/NC(N)=S | > 100 µM (inactive) | > 100 µM (inactive) | > 100 µM (inactive) | > 100 µM (inactive) | > 100 µM (inactive) | > 100 µM (inactive) | > 100 µM (inactive) | > 100 µM (inactive) | > 100 µM (inactive) | > 100 µM (inactive) | > 100 µM (inactive) | > 100 µM (inactive) | > 100 µM (inactive) | > 100 µM (inactive) | > 100 µM (inactive) | > 100 µM (inactive) | > 100 µM (inactive) |  |
| Nc1c(-c2ccc(-c3c(N)[n+]([O-])c4ccccc4[n+]3[O-])cc2)[n+]([O-])c2ccccc2[n+]1[O-] | 31.8 µM (inactive) | 12.2 µM (inactive) | 12.1 µM (inactive) | 13.5 µM (inactive) |  | 3.47 µM (inactive) | 13.9 µM (inactive) | 15.1 µM (inactive) | 1.6 µM (inactive) | 9.75 µM (inactive) | > 100 µM (inactive) | 15.7 µM (inactive) | 20.9 µM (inactive) | 4.92 µM (inactive) | 4.5 µM (inactive) | 17.2 µM (inactive) | 6.21 µM (inactive) | 3.92 µM |
| Cc1ccc(S(=O)(=O)N/N=C(\c2nc3ccc([N+](=O)[O-])cc3[nH]c2=O)C(O)c2ccc([N+](=O)[O-])cc2)cc1 (stereo not given) | > 100 µM (inactive) | > 100 µM (inactive) |  | > 100 µM (inactive) |  | > 100 µM (inactive) | 10 µM (inactive) | 28.2 µM (inactive) | 10.8 µM (inactive) | 23.8 µM (inactive) | > 100 µM (inactive) | 29.2 µM (inactive) | > 100 µM (inactive) | > 100 µM (inactive) | > 100 µM (inactive) | 63.5 µM (inactive) | > 100 µM (inactive) | 28.2 µM |
| O=C1c2ccccc2C(=O)c2cc3c(cc21)C[S+]([O-])C3 | > 100 µM (inactive) | > 100 µM (inactive) | > 100 µM (inactive) | > 100 µM (inactive) |  | > 100 µM (inactive) | > 100 µM (inactive) | > 100 µM (inactive) | > 100 µM (inactive) | > 100 µM (inactive) | > 100 µM (inactive) | > 100 µM (inactive) | > 100 µM (inactive) | > 100 µM (inactive) | > 100 µM (inactive) | > 100 µM (inactive) | > 100 µM (inactive) | > 10 µM |
